Assay results published in patent US20260284051A1, “METHIONINE ADENOSYLTRANSFERASE 2A (MAT2A) INHIBITOR COMBINATIONS AND USES THEREOF” (INSILICO MEDICINE IP LIMITED, priority 2023, published 2026).

Assays:
[1] = system: HCC15 MTAP null xenografts; assay: Efficacy study of HCC15 human lung cancer xenograft model in NOD SCID mice; type: in vivo; settings: for Tumor volume (mm^3) Final (mean): Mean ± SD
Protocol: Efficacy Study of HCC15 Human Lung Cancer Xenograft Model in NOD SCID Mice Methods:
The HCC15 cells were maintained in vitro as a monolayer culture in 90% 1640+10% FBS, 100U/ml penicillin and 100 μg/ml streptomycin at 37° C. in an atmosphere of 5% CO2 in air. The tumor cells were routinely subcultured at a ratio of 1:2 to 1:3 every 3-4 days. Alternatively, Cultures were maintained by addition or replacement of fresh medium. Started cultures at 5×10^5 cells/mL and maintained between 0.5×10^5 and 2×10^6 cells/ml.
NOD SCID mice, female, 6-8 weeks, weighing approximately 20-22 g.
Each mouse were inoculated subcutaneously at the right flank with HCC15 cells in a 0.2 mL mixture of 1640 for tumor development (5×10^6 cells/mouse). Dosing was started when the average tumor size reaches approximately 100-200 mm^3 for the tumor efficacy study with tool and med chem molecules to look for efficacy vs vehicle tumor growth.
(§1) Mean tumor volume at dosing start was approximately 133.09 mm^3, with ten mice randomized to each treatment group. In the HCC15 MTAP null tumor model, mice were dosed orally, once per day (QD) with Vehicle, once per day (QD) with Compound 1 at 3 mg/kg, once per day (QD) with AG270 at 100 mg/kg, mice were intravenous, per week with Docetaxel at 2.5 mg/kg, or Compound 1 combined with Docetaxel at each dose level.

KP4 MTAP null xenografts = assay: Efficacy study of KP-4 human pancreatic cancer xenograft model in NOD SCID mice; type: in vivo; settings: for Tumor volume (mm^3) Final (mean): Mean ± SD
Protocol: Efficacy Study of KP-4 Human Pancreatic Cancer Xenograft Model in NOD SCID Mice
The KP-4 tumor cell line was maintained in vitro as monolayer culture in RPMI 1640 medium supplemented with 10% fetal bovine serum at 37° C. in an atmosphere of […] in air. The tumor cells were routinely subculture weekly by trypsin-EDTA treatment, not to exceed 4-5 passages. The cells growing in an exponential growth phase was harvested and counted for tumor inoculation.
Each mouse was inoculated subcutaneously on the central right flank with KP-4 tumor cells (1×10^7) in 0.1 mL of RPMI-1640 without serum for the tumor development. The treatment started when the mean tumor size reached approximately 100 mm^3. Mice were assigned to groups such that the mean tumor volume is the same for each treatment group and time point.
For routine monitoring, all study animals were monitored for not only tumor growth but also behavior such as mobility, food, and water consumption (by cage side checking only), body weight (BW), eye/hair matting and any other abnormal effect. Any mortality and/or abnormal clinical signs were recorded.
Body weights of all animals were measured twice a week throughout the study. Body weight change, expressed in %, will be calculated using the following formula: BW change (%)=(BWDay x/BWDay 0)×100, where BWDay x is BW on a given day, and BWDay 0 is BW on Day 0 (initiation of treatment).
The measurement of tumor size were conducted twice a week with a caliper and the tumor volume (mm^3) was estimated using the formula: TV=a×b^2/2, where a and b are long and short diameters of a tumor, respectively. The TVs were used for calculation of the tumor growth inhibition (TGI, an indicator of antitumor effectiveness) value using the formula: TGI (%)=[1−(Tn−T0)/(Cn−C0)]×100%, only over the dosing period (dosing days 0 to days n). Where: Tn—is the avg tumor volume at the respective day “n” after dosing throughout treatment period; T0—is the avg tumor volume in the treatment group at day 0 before treatment (immediately before); Cn—avg tumor volume in the control group at the respective day “n” after dosing throughout treatment period; and C0—average tumor volume in the control group at day 0 before treatment (immediately before). The experiment was terminated when the mean tumor volume exceeded 2000 mm^3 or severe body weight loss.
The statistical software GraphPad Prism (version number: 8) was used to analyze the difference in tumor volume between the treatment group and the solvent control group. Two-way ANOVA and Bonferroni multiple tests were used to compare whether there was a significant difference in tumor volume between the vehicle control group and each treatment group during the administration period.
as §1, with “was approximately 102 mm^3, with” for “was approximately 133.09 mm^3, with”, “In the KP4 MTAP null” for “In the HCC15 MTAP null”, “1 at 1, 3 mg/kg,” for “1 at 3 mg/kg,”

MAT2A = MAT2A (Homo sapiens, UniProt P31153); assay: MAT2A Biochemical Assay; settings: read-out: MAT2A enzymatic IC50
Chain of MAT2A (P31153 whole entry, species assumed): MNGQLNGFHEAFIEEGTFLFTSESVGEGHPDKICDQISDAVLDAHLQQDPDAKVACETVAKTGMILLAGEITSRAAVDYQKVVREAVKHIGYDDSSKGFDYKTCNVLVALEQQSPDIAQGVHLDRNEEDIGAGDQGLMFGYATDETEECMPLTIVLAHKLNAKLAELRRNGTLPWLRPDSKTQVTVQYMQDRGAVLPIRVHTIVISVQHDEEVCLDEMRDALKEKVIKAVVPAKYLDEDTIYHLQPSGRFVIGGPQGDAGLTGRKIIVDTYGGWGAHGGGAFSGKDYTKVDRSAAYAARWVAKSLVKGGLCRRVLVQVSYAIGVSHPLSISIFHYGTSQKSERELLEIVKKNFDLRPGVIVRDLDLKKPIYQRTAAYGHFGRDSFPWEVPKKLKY
Protocol: Example A: MAT2A Biochemical Assay
Compounds described herein were tested as follows:
• (1). Prepared 1×Assay buffer. • (2). Preparation of compound concentration gradient: the compounds test condition were […], 3-fold dilution, 10 doses, singlet or duplicate. 100x concentration compounds were prepared in 384-well plate. Then used Echo 550 to transfer 250 nl to a 384-reaction plate for later use. Added 250 nl of 100% DMSO to the negative and positive control wells. • (3). Prepared 1.67× final concentration enzyme solution with 1×Assay buffer. • (4). Added 15 μl of 1.67× Enzyme solution to the compound wells and positive control wells; added 15 μl of 1×Assay buffer to the negative control wells. • (5). Centrifuged at 1000 rpm for 30 seconds and incubate for 15 minutes. • (6). Prepared 2.5× final concentration Substrate mix solution with 1×Assay buffer. • (7). Added 10 μl of 2.5× final concentration Substrate mix solution to start the reaction. • (8). Centrifuged at 1000 rpm for 30 seconds and incubate for 150 minutes. • (9). Added […] Biomol Green to stop the reaction, centrifuge at 1000 rpm for 30 seconds and incubate for 15 minutes. read O.D.620, process data.
• (1) Using GraphPad Prism 5.
[formula] • (3) Max signal was obtained from the positive control wells. • (4) Min signal was obtained from the negative control wells.

[2] = combination: Compound 1 3 mg/kg QD + Docetaxel 2.5 mg/kg per week
[3] = combination: Compound 1 3 mg/kg QD + Docetaxel 2.5 mg/kg per week, listed as Compound 1

IC50 (MAT2A): < 50 nM
Structure (SMILES): C#CCNc1nc(=O)n(-c2cccnc2C)c2cc(C(F)(F)F)cc(OC)c12 [Example 36, 5-methoxy-1-(2-methylpyridin-3-yl)-4-(prop-2-yn-1-ylamino)-7-(trifluoromethyl)quinazolin-2(1H)-one]
Tumor volume (mm^3) Final (mean) ([1]; Compound 1 3 mg/kg orally QD): 596 ± 63 mm^3 | TGI (%) ([1]; Compound 1 3 mg/kg orally QD, listed as Compound 1, 3 mg/kg): 49.6% | effect on tumor growth (in words) ([1]; combination of Compound 1 3 mg/kg and Docetaxel 2.5 mg/kg): significantly inhibited tumor growth | Tumor volume (mm^3) Final (mean) [1, 2]: 399 ± 42 mm^3 | TGI (%) [1, 3]: 71.2% | TGI (%) (KP4 MTAP null xenografts; Compound 1 1 mg/kg orally QD): 36.8% | Tumor volume (mm^3) Final (mean) (KP4 MTAP null xenografts; Compound 1 1 mg/kg orally QD): 1,484 ± 263 mm^3 | TGI (%) (KP4 MTAP null xenografts; Compound 1 3 mg/kg orally QD): 53.4% | Tumor volume (mm^3) Final (mean) (KP4 MTAP null xenografts; Compound 1 3 mg/kg orally QD): 1,121 ± 181 mm^3 | effect on tumor growth (in words) (KP4 MTAP null xenografts; combination of Compound 1 (1, 3 mg/kg) and Docetaxel 2.5 mg/kg): significantly inhibited tumor growth in a dose dependent manner | Tumor volume (mm^3) Final (mean) (KP4 MTAP null xenografts; combination: Compound 1 1 mg/kg QD + Docetaxel 2.5 mg/kg per week): 767 ± 101 mm^3 | TGI (%) (KP4 MTAP null xenografts; combination: Compound 1 1 mg/kg QD + Docetaxel 2.5 mg/kg per week, listed as Compound 1): 69.6% | Tumor volume (mm^3) Final (mean) (KP4 MTAP null xenografts; [2]): 686 ± 80 mm^3 | TGI (%) (KP4 MTAP null xenografts; [3]): 73.2%
